Several values for one entry are separate records, joined by “and”; a condition that tells them apart may be missing. Equal values may be shown once. Inconclusive results are not listed.

The test system of the test is Nude mice, LX-1 lung xenograft intrarenal, tumor weight T/C. Briefly: NCI In Vivo Anticancer Drug Screen. Data for tumor model Human Lung LX-1 Xenograft (intrarenal inoculation) in NU/NU BALB/C (nude) mice. To be noted: endpoint: mean tumor weight change, higher = larger tumour. The method, then: The antitumor activity of compounds was measured in mice bearing transplantable tumors. Survival or tumor size were measured and the results are expressed as the measurement made in the treated group (T) divided by the measurement made in the vehicle treated control group (C). The tumor model used in this assay is Human Lung LX-1 Xenograft (intrarenal inoculation) in NU/NU BALB/C (nude) mice

The mark [1] stands for this setting: dose: 300.0 mg/kg/injection, schedule: Q04DX003 (sc), vehicle: saline.
Setting [2] is: dose: 300.0 mg/kg/injection, schedule: Q04DX003 (sc), vehicle: saline with Tween-80.
Where [3] appears, read: dose: 600.0 mg/kg/injection, schedule: Q04DX003 (sc), vehicle: saline with Tween-80.
Where [4] appears, read: dose: 1200.0 mg/kg/injection, schedule: Q04DX003 (sc), vehicle: saline with Tween-80.
Where [5] appears, read: dose: 2400.0 mg/kg/injection, schedule: Q04DX003 (sc), vehicle: saline with Tween-80.
Where [6] appears, read: dose: 100.0 mg/kg/injection, schedule: Q04DX003 (sc), vehicle: saline with Tween-80.
[7] abbreviates: dose: 300.0 mg/kg/injection, schedule: Q04DX003 (sc), vehicle: Klucel (hydroxypropylcellulose) (HPC).
The mark [8] stands for this setting: dose: 600.0 mg/kg/injection, schedule: Q04DX003 (sc), vehicle: Klucel (hydroxypropylcellulose) (HPC).
Setting [9] is: dose: 100.0 mg/kg/injection, schedule: Q04DX003 (sc), vehicle: Klucel (hydroxypropylcellulose) (HPC).
[10] abbreviates: dose: 37.5 mg/kg/injection, schedule: Q04DX003 (sc), vehicle: saline.
Where [11] appears, read: dose: 75.0 mg/kg/injection, schedule: Q04DX003 (sc), vehicle: saline.
Where [12] appears, read: dose: 2400.0 mg/kg/injection, schedule: Q04DX003 (sc), vehicle: Klucel (hydroxypropylcellulose) (HPC).

Regarding `COC(=O)CC(N)C(=O)O` (stereo not given), the T/C is 84 % of control under setting [1]; 80 % of control (dose: 600.0 mg/kg/injection, schedule: Q04DX003 (sc), vehicle: saline); 55 % of control (dose: 1200.0 mg/kg/injection, schedule: Q04DX003 (sc), vehicle: saline); 54 % of control (dose: 2400.0 mg/kg/injection, schedule: Q04DX003 (sc), vehicle: saline).

On to `N#CCCSC(=S)C1CCCC1=N` (stereo not given), for which the T/C was 84 % of control under setting [2], 79 % of control under setting [3], 102 % of control under setting [4] and 91 % of control under setting [5].

In the case of `Nc1nnc[se]1`, the T/C by setting is: under setting [6], 82 % of control; (dose: 200.0 mg/kg/injection, schedule: Q04DX003 (sc), vehicle: saline with Tween-80) 40 % of control; (dose: 400.0 mg/kg/injection, schedule: Q04DX003 (sc), vehicle: saline with Tween-80) 30 % of control.

Consider `O=S(=O)(CCl)OCCCl`, for which the T/C is 122 % of control (dose: 50.0 mg/kg/injection, schedule: Q04DX003 (sc), vehicle: saline with Tween-80) and 101 % of control under setting [6].

On to `CC(=O)OC1C(O)C(C)OC(OC2C(OC(=O)C3CCC4C(C3)OC3(CC(OC(=O)/C=C/c5ccccc5)C(C)CO3)C43CO3)OC(C)C(O)C2OC(C)=O)C1O` (stereo not given), for which the T/C is, setting by setting: (dose: 37.5 mg/kg/injection, schedule: Q04DX003 (sc), vehicle: distilled water + Tween-80) 121 % of control; (dose: 75.0 mg/kg/injection, schedule: Q04DX003 (sc), vehicle: distilled water + Tween-80) 63 % of control.

Consider `CCNC(C)(C)C(SSS)c1ccco1` (stereo not given), for which the T/C by setting is: (dose: 150.0 mg/kg/injection, schedule: Q04DX003 (sc), vehicle: Klucel (hydroxypropylcellulose) (HPC)) 82 % of control; under setting [7], 84 % of control; under setting [8], 76 % of control.

Take `O=C(CCCCCCC(=O)ON1C(=O)CCC1=O)ON1C(=O)CCC1=O`: the T/C under setting [2] was 104 % of control, the T/C under setting [3] was 95 % of control, the T/C under setting [4] was 89 % of control and the T/C under setting [5] is 72 % of control.

As to `COc1cc(C[C@H]2c3cc(OC)c(OC)cc3CCN2C)c(Oc2cc3c(cc2OC)-c2c(OC)c(OC)cc4c2[C@H](C3)N(C)CC4)cc1OC`, the T/C by setting is: (dose: 50.0 mg/kg/injection, schedule: Q01DX010 (sc), vehicle: saline with Tween-80) 85 % of control; (dose: 100.0 mg/kg/injection, schedule: Q01DX010 (sc), vehicle: saline with Tween-80) 107 % of control; (dose: 200.0 mg/kg/injection, schedule: Q01DX010 (sc), vehicle: saline with Tween-80) 73 % of control; (dose: 400.0 mg/kg/injection, schedule: Q01DX010 (sc), vehicle: saline with Tween-80) 90 % of control.

For the molecule `CN(C)/N=N/c1nc[nH]c1C(N)=O`, the T/C is -25 % of control under setting [9]; 2 % of control (dose: 200.0 mg/kg/injection, schedule: Q01DX010 (sc), vehicle: Klucel (hydroxypropylcellulose) (HPC)); -43 % of control (dose: 200.0 mg/kg/injection, schedule: Q04DX003 (sc), vehicle: Klucel (hydroxypropylcellulose) (HPC)); -91 % of control (dose: 400.0 mg/kg/injection, schedule: Q04DX003 (sc), vehicle: Klucel (hydroxypropylcellulose) (HPC)); -100 % of control (dose: 800.0 mg/kg/injection, schedule: Q04DX003 (sc), vehicle: Klucel (hydroxypropylcellulose) (HPC)).

Regarding `CN(C)N=Nc1ccc(C(N)=O)cc1`, the T/C (dose: 200.0 mg/kg/injection, schedule: Q04DX003 (ip), vehicle: saline with Tween-80) is -20 % of control and -13 % of control.

For `CCC1OC(OC)C=CC1=O` (stereo not given), the T/C runs as follows: under setting [10], 90 % of control; under setting [11], 99 % of control.

With `C1CN1c1nc(N2CC2)nc(N2CC2)n1`, the T/C reads like this: (dose: 0.25 mg/kg/injection, schedule: Q01DX010 (sc), vehicle: saline) 34 % of control; (dose: 0.5 mg/kg/injection, schedule: Q01DX010 (sc), vehicle: saline) 45 % of control.

As for `O=CNCO`, the T/C (dose: 250.0 mg/kg/injection, schedule: Q01DX010 (sc), vehicle: water) is 72 % of control; the T/C (dose: 500.0 mg/kg/injection, schedule: Q01DX010 (sc), vehicle: water) was 87 % of control; the T/C (dose: 1000.0 mg/kg/injection, schedule: Q01DX010 (sc), vehicle: water) was 100 % of control; the T/C (dose: 2000.0 mg/kg/injection, schedule: Q01DX010 (sc), vehicle: water) is 80 % of control.

As for `O=NN(CCCl)C(=O)NC1CCCCC1`, the T/C runs as follows: (dose: 12.5 mg/kg/injection, schedule: Q04DX003 (sc), vehicle: Klucel (hydroxypropylcellulose) (HPC)) 47 % of control; (dose: 25.0 mg/kg/injection, schedule: Q04DX003 (sc), vehicle: Klucel (hydroxypropylcellulose) (HPC)) 29 % of control; (dose: 26.66 mg/kg/injection, schedule: Q04DX003 (sc), vehicle: saline with Tween-80) 4 % of control; (dose: 50.0 mg/kg/injection, schedule: Q04DX003 (sc), vehicle: Klucel (hydroxypropylcellulose) (HPC)) -25 % of control; (dose: 53.33 mg/kg/injection, schedule: Q04DX003 (sc), vehicle: saline with Tween-80) -73 % of control; under setting [9], 4 % of control.

Regarding `Cc1ccc(S(=O)(=O)NC(=O)C2C(=O)CC3(CCCCC3)CC2=O)cc1`, the T/C is 122 % of control under setting [7], 101 % of control under setting [8] and 84 % of control under setting [12].

As for `CN(CCN(C)C(=O)CCOS(C)(=O)=O)C(=O)CCOS(C)(=O)=O`, the T/C runs as follows: under setting [10], 90 % of control; under setting [11], 91 % of control; (dose: 150.0 mg/kg/injection, schedule: Q04DX003 (sc), vehicle: saline) 86 % of control; under setting [1], 36 % of control.

On to `CCC12C[N+]3([O-])CCc4c([nH]c5ccccc45)C(C(=O)OC)(c4cc5c(cc4OC)N(C)C4C(O)(C(=O)OC)C(OC(C)=O)C6(CC)C=CCN7CCC54C76)CC(C3)C1O2` (stereo not given), for which the T/C is, setting by setting: (dose: 40.0 mg/kg/injection, schedule: Q04DX003 (sc), vehicle: water) 64 % of control; (dose: 80.0 mg/kg/injection, schedule: Q04DX003 (sc), vehicle: water) 86 % of control; (dose: 160.0 mg/kg/injection, schedule: Q04DX003 (sc), vehicle: water) 93 % of control; (dose: 320.0 mg/kg/injection, schedule: Q04DX003 (sc), vehicle: water) 93 % of control.

Consider `CC1CCC(n2cnc3c(Cl)ncnc32)O1` (stereo not given), for which the T/C under setting [7] is 81 % of control.

As to `N[C@@H](Cc1ccc(N(CCCl)CCCl)cc1)C(=O)O`, the T/C (dose: 1.0 mg/kg/injection, schedule: Q01DX010 (sc), vehicle: saline) is 94 % of control; the T/C (dose: 2.0 mg/kg/injection, schedule: Q01DX010 (sc), vehicle: saline) was 47 % of control; the T/C (dose: 4.0 mg/kg/injection, schedule: Q01DX010 (sc), vehicle: saline) is 13 % of control; the T/C (dose: 8.0 mg/kg/injection, schedule: Q01DX010 (sc), vehicle: saline) was -19 % of control.

In the case of `O=c1cnn(C2OC(CO)C(O)C2O)c(=O)[nH]1` (stereo not given), the T/C reads like this: (dose: 200.0 mg/kg/injection, schedule: Q01DX010 (sc), vehicle: saline) 42 % of control; (dose: 400.0 mg/kg/injection, schedule: Q01DX010 (sc), vehicle: saline) 46 % of control; (dose: 800.0 mg/kg/injection, schedule: Q01DX010 (sc), vehicle: saline) 35 % of control.

As to `CN1C(=O)C(=Cc2ccc(O)cc2)C(=O)N(C)C1=O`, the T/C by setting is: under setting [2], 114 % of control; under setting [3], 110 % of control; under setting [4], 87 % of control; under setting [5], 68 % of control.

`CCCCNc1ccc2nnc(C)n2n1`: the T/C (dose: 150.0 mg/kg/injection, schedule: Q04DX003 (ip), vehicle: DMSO) was 99 % of control.

Regarding `O=C1N[C@H]2[C@H](CS[C@H]2CCCCC(=O)N(CCP(c2ccccc2)c2ccccc2)CCP(c2ccccc2)c2ccccc2)N1`, the T/C runs as follows: under setting [7], 84 % of control; under setting [8], 64 % of control; (dose: 1200.0 mg/kg/injection, schedule: Q04DX003 (sc), vehicle: Klucel (hydroxypropylcellulose) (HPC)) 87 % of control; under setting [12], 71 % of control.

For the molecule `CCCCCCCCCCCCCCCCCCOCC(COP(=O)([O-])OCC[N+](C)(C)C)OC` (stereo not given), the T/C under setting [10] was 68 % of control.

The values are drawn from PubChem BioAssay AID266 (DTP/NCI, 2004).
